Measurements reported in the supplement of paper PMC12463676, “Small-molecule dissolution of stress granules by redox modulation benefits ALS models” (Nature Chemical Biology, 2025).

Key:
lipoamide = compound: NC(=O)CCCCC1CCSS1 [lipoamide]; test: thermal stability z-score vs DMSO; higher = more thermally stabilized by treatment; conditions: HeLa, lipoamide concentration 100 µM
Protocol: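 Cellular thermal proteome profiling in HeLa cells. Cells were treated with 100 µM lipoamide for 1 h, with or without 1 mM arsenate for a further 1 h, then heated to ten temperatures (37-66.3 °C), and soluble protein was quantified by TMT mass spectrometry relative to 0.1% DMSO controls. The thermal stability score (sum of log2 fold changes minus the abundance score) was transformed to a z-score; mean of n = 3 experiments.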

potassium arsenate = compound: O=[As]([O-])(O)O.[K+] [potassium arsenate]; test: as above; conditions: HeLa; arsenate concentration 1 mM
Protocol: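 Cellular thermal proteome profiling in HeLa cells treated with 1 mM arsenate for 1 h (DMSO pretreatment), heated to ten temperatures (37-66.3 °C). Soluble protein was quantified by TMT mass spectrometry relative to DMSO controls; the thermal stability score was transformed to a z-score; mean of n = 3 experiments.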

[1] = arsenate co-treatment: 1 mM arsenate 1 h
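Further: each temperature applied for 3 min, abundance score taken as mean log2 fold change at the two lowest temperatures, z-score obtained by mean subtraction and division by SD.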

UniProt Q96AA3, sequence (Q96AA3 whole entry): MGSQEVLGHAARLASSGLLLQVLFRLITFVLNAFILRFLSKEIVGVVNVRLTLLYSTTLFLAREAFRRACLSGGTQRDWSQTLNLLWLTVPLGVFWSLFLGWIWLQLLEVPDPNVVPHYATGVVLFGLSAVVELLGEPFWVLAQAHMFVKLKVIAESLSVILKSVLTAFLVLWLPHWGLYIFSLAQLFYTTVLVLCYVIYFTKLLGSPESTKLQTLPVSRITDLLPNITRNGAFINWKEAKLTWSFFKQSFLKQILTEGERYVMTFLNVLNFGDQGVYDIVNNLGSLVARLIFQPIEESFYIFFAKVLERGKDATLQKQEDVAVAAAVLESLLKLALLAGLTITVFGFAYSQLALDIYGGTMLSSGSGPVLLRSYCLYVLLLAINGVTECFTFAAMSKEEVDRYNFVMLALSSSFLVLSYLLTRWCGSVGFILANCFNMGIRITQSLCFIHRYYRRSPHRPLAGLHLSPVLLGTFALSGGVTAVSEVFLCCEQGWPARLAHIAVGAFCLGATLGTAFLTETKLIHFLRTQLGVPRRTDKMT
UniProt Q7Z4W1, sequence (Q7Z4W1 whole entry): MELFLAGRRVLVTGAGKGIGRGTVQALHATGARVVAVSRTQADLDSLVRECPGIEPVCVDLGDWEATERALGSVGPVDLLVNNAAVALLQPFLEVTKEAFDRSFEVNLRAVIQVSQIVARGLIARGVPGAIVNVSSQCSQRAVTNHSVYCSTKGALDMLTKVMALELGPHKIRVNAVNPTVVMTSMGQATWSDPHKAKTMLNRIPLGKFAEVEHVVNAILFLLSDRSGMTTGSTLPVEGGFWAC
UniProt Q5QP82, sequence (Q5QP82 whole entry): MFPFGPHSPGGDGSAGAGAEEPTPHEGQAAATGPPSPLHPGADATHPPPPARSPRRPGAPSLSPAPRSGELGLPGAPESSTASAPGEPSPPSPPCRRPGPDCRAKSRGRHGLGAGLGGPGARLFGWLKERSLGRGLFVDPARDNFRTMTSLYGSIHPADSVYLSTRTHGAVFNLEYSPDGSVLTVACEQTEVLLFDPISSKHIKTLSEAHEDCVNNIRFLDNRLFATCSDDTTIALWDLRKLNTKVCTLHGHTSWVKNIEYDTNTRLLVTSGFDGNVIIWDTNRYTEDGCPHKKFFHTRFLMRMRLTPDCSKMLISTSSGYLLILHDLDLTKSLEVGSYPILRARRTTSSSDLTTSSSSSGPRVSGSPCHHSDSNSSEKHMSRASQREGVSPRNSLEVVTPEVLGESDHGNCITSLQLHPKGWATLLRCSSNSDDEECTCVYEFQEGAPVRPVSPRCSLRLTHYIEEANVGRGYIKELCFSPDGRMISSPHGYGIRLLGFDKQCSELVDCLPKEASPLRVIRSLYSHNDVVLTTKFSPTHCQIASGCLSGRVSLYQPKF
UniProt Q5T6F0, sequence (Q5T6F0 whole entry): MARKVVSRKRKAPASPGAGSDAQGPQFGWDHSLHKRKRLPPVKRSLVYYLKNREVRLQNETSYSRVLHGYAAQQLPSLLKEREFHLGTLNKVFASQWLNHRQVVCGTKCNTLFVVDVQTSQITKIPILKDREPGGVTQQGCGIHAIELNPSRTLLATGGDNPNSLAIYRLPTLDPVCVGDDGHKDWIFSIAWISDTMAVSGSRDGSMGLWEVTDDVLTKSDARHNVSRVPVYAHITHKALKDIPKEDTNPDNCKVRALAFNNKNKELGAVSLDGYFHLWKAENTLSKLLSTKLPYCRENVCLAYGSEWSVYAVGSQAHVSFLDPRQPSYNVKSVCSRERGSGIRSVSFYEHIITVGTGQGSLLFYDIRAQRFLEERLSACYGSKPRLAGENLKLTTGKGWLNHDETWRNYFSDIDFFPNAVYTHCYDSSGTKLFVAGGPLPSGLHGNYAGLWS
UniProt Q6PID6, sequence (Q6PID6 whole entry): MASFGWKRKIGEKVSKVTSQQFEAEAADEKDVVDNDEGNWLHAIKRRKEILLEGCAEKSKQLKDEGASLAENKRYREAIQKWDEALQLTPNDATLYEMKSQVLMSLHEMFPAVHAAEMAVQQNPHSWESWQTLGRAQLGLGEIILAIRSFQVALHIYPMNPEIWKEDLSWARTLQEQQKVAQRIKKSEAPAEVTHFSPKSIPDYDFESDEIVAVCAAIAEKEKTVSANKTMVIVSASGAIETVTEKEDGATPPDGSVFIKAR
UniProt A4D1E9, sequence (A4D1E9 whole entry): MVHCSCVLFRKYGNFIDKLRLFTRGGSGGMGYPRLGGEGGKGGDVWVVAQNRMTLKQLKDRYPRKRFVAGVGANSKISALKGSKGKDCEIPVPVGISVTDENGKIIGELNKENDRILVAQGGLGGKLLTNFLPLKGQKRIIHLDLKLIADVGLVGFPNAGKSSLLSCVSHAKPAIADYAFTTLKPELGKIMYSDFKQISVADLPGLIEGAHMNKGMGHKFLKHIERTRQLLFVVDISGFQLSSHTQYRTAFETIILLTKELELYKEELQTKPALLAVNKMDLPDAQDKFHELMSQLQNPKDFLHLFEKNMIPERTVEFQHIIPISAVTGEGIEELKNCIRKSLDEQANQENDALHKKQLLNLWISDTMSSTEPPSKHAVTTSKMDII
UniProt Q93100, sequence (Q93100 whole entry): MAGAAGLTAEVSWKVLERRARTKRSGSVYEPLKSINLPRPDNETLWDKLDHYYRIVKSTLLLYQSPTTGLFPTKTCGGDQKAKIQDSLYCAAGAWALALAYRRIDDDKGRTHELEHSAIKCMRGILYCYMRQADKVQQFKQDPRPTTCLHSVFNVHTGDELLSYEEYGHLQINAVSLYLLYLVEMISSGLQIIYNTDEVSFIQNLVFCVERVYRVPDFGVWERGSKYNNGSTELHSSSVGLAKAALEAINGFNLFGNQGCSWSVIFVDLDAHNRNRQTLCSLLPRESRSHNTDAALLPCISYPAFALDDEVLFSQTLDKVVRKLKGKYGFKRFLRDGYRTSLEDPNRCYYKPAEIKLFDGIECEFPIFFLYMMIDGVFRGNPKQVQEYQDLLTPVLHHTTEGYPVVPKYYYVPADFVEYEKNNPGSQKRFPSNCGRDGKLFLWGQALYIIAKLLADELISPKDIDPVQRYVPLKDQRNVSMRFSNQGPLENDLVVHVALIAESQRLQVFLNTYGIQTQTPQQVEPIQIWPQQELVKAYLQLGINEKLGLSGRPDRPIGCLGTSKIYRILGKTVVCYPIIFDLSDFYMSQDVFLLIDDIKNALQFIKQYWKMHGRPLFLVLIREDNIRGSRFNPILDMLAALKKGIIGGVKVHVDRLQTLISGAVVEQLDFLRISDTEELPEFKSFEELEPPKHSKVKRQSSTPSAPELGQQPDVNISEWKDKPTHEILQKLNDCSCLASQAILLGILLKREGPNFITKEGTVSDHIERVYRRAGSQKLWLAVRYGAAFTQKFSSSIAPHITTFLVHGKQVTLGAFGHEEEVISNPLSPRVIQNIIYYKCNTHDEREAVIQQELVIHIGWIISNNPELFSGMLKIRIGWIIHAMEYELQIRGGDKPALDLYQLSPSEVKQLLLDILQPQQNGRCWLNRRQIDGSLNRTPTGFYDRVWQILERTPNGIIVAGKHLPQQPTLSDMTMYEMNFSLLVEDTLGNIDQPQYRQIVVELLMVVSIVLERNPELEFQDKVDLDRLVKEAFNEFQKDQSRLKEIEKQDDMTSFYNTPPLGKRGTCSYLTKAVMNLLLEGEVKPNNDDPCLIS
UniProt Q9BRT3, sequence (Q9BRT3 whole entry): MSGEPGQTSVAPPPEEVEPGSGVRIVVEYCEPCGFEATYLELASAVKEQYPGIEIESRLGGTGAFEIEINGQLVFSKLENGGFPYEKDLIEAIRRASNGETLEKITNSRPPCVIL
UniProt Q9UEU0, sequence (Q9UEU0 whole entry): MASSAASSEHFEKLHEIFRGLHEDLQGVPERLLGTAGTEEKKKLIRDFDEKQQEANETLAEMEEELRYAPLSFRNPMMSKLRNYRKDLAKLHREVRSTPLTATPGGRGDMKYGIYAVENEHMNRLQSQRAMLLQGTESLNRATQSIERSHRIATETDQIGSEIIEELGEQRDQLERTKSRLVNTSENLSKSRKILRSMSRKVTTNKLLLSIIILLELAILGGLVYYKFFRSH
UniProt P43007, sequence (P43007 whole entry): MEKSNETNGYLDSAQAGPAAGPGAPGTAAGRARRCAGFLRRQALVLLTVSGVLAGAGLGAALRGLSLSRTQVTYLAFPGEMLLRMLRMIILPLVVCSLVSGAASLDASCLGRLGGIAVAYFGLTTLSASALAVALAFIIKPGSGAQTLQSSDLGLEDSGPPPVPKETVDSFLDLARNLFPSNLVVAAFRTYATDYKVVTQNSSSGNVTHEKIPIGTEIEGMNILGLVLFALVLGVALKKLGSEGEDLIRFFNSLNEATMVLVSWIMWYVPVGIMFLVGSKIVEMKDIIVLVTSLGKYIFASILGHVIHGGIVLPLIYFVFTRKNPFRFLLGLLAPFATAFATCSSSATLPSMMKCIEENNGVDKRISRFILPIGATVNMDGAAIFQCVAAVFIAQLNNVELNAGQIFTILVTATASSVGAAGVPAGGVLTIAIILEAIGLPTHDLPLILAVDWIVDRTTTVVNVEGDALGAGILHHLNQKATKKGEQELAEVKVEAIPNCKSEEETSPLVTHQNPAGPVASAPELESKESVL
UniProt Q6ICG6, sequence (Q6ICG6 whole entry): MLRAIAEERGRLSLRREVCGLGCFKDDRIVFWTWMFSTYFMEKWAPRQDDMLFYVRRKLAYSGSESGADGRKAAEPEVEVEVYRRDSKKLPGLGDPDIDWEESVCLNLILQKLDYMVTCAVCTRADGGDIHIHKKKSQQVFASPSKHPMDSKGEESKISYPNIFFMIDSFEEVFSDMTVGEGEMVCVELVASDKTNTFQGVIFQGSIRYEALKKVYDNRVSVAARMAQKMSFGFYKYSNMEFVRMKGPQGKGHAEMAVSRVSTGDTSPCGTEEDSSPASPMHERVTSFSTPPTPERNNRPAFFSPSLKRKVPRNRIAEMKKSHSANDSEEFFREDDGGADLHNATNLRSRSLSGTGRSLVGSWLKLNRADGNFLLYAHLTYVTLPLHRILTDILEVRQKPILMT
UniProt O75348, sequence (O75348 whole entry): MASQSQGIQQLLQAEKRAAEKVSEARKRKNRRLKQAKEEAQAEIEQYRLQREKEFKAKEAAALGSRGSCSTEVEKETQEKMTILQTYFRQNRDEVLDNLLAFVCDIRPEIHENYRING

Row | Target | thermal stability z-score (lipoamide; [1]) | thermal stability z-score (lipoamide; arsenate co-treatment: none) | thermal stability z-score (potassium arsenate)
1 | CDC27 (UniProt P30260) | 0.122 | 0.0944 | -0.522
2 | GSTT1 (UniProt P30711) | 1.07 | 0.0783 | -0.279
3 | DNAJC10 (UniProt Q8IXB1) | -3.47 | -2.86 | -0.253
4 | A0A087WZ62 | 0.00979 | 0.224 | 0.358
5 | TP53BP2 (UniProt Q13625) | -1.06 | 0.188 | -1.29
6 | MOSPD1 (UniProt Q9UJG1) | -0.167 | -0.25 | -0.354
7 | AGMAT (UniProt Q9BSE5) | 0.292 | 0.565 | 0.92
8 | CDC37 (UniProt Q16543) | 0.928 | 0.616 | 0.222
9 | USP16 (UniProt Q9Y5T5) | -0.544 | -0.649 | 0.229
10 | DCAF10 (UniProt Q5QP82) | 0.0128 | 0.566 | 0.0678
11 | GIT1 (UniProt Q9Y2X7) | 0.346 | -0.311 | -0.368
12 | PTPN23 (UniProt Q9H3S7) | -0.214 | -0.0347 | 0.691
13 | VTI1B (UniProt Q9UEU0) | -0.0224 | -0.376 | -0.184
14 | KIAA1033 (UniProt Q2M389) | -0.344 | -0.193 | -0.0284
15 | WDR13 (UniProt Q9H1Z4) | -0.241 | -0.115 | -0.408
16 | GTPBP10 (UniProt A4D1E9) | -0.946 | 0.2 | 0.522
17 | GPKOW (UniProt Q92917) | 0.182 | 0.0635 | -1.58
18 | DCXR (UniProt Q7Z4W1) | 0.346 | -0.203 | 0.528

Row | Target | thermal stability z-score (lipoamide; [1]) | thermal stability z-score (lipoamide; arsenate co-treatment: none) | thermal stability z-score (potassium arsenate)
19 | TTC33 (UniProt Q6PID6) | 0.242 | 0.0666 | -0.664
20 | RFT1 (UniProt Q96AA3) | -0.878 | -0.767 | -0.609
21 | ATP6V1G1 (UniProt O75348) | 0.563 | 0.473 | 0.295
22 | KIAA0930 (UniProt Q6ICG6) | 0.193 | 0.227 | 0.706
23 | EED (UniProt O75530) | 0.547 | 0.145 | -0.276
24 | TPM1 (UniProt P09493) | 0.347 | 0.422 | -0.151
25 | SLC1A4 (UniProt P43007) | -0.807 | -0.485 | -0.588
26 | DCAF12 (UniProt Q5T6F0) | 0.118 | 0.0205 | 0.154
27 | ME3 (UniProt Q16798) | 1.29 | 1.51 | 0.6
28 | RNF139 (UniProt Q8WU17) | -1.16 | -0.12 | 0.947
29 | MIEN1 (UniProt Q9BRT3) | 0.165 | -0.595 | 0.969
30 | MRPL9 (UniProt Q9BYD2) | -0.106 | 0.203 | 0.232
31 | GABPA (UniProt Q06546) | -0.201 | -0.185 | 4.54
32 | PHKB (UniProt Q93100) | 0.125 | 0.135 | 0.278
33 | ARFGEF2 (UniProt Q9Y6D5) | -0.376 | -0.0733 | 0.0926
34 | GYS1 (UniProt P13807) | 0.31 | 0.22 | 0.706
35 | SEC23IP (UniProt Q9Y6Y8) | -0.784 | -1.16 | 1.54
36 | LARP1 (UniProt Q6PKG0) | 0.375 | 0.88 | 1.03
